Measurements: US10166292B2, “Blocking IL-9 signaling in conjunction with chemotherapy to treat cancer” (Mayo Foundation for Medical Education and Research, priority 2014, dated 2019)

Assays:
CD4^+ T cells = assay: IFNγ ELISpot assay of enriched T cells; assay type: cell-based, mice; conditions: CD4^+ T cells plus tumor cell lines, no syngeneic antigen-presenting cells; positive control
Description: 1×10^5 4T1 splenocytes were co cultured with either 5×10^4 4T1 or TUBO cells. 5×10^4 4T1 lymphocytes were co cultured with either 2.5×10^4 4T1 or TUBO cells, following the manufacturers' instructions. CD4^+ and CD8^+ T cells were enriched from the spleens of naïve and 4T1-bearing WT and IL-9ko mice using a negative isolation kit (Invitrogen, Carlsbad Calif.). 1×10^5 T cells were co-cultured with 2.5×10^4 4T1 cells or with BM185, a non-specific control tumor line for 40 hours. Each experimental condition was executed in biological triplicates, which in turn comprised triplicate wells. Manufacturer's instructions were followed to reveal INFγ positive spots using the interferon gamma ELISpot kit from Mabtech (cat #3321-2HW-Plus). The plates were imaged and evaluated by ZellNet Consulting, Inc. (Fort Lee N.J.), and result expressed as average of triplicate spots per condition. Phorbol 12-myristate 13-acetate (PMA) was used as a positive control of cell activation.
These cells were co-cultured with 4T1 or BM185 cells, a BALB/c background murine leukemia cell line used here as a negative control (FIG. 4C). […]

4T1 cells = assay: Experimental metastasis model, tail vein injection of 4T1 cells, foci in the lung; assay type: in vivo; conditions: IL-9ko mice, 1×10^5 4T1 cells tail vein; IL-9ko without IL-9: 3, WT: 87; p=0.043
From the text: Since few IL-9ko mice that developed 4T1 tumors never had evidence of macro metastases in the lungs, an experimental metastasis model was used to verify whether IL-9 plays a role in 4T1 seeding in the lung. […] Addition of recombinant IL-9 led to enhanced 4T1 seeding in the lungs of IL-9ko mice (an average of 13 foci per lung) (p=0.043, FIGS. 7A and 7B).

## CCCCCCCCCCCCCC(=O)O[C@@H]1[C@@H](C)[C@@]2(O)[C@@H](C=C(CO)C[C@]3(O)C(=O)C(C)=C[C@@H]23)[C@@H]2C(C)(C)[C@]12OC(C)=O [PMA, Phorbol 12-myristate 13-acetate]
CD4^+ T cells
  IFNγ^+ spots: produced IFNγ^+ spots only if exposed to PMA

B1: recombinant IL-9: Recombinant IL-9 cytokine added to IL-9ko mice in the 4T1 lung metastasis model (protein, UniProt P15247 19-144, looked up)
Interleukin-9: QRCSTTWGIRDTNYLIENLKDDPPSKCSCSGNVTSCLCLSVPTDDCTTPCYREGLLQLTNATQKSRLLPVFHRVKRIVEVLKNITCPSFSCEKPCNQTMAGNTLSFLKSLLGTFQKTEMQRQKSRP
4T1 cells
  average foci per lung: 13 foci per lung
